According to patent publication US20220054432A1, “COMPOSITION FOR INCREASING RETENTION OF CAROTENOID IN BLOOD” (ENEOS Corporation, priority 2018, published 2022):
Read-outs that look alike come from different tables or passages of the source. Blank lines part the entries; values can stand above or below the compound they belong to.

Columns and labels:
[1] = Retention in blood: carotenoid concentration in serum of mice (Test Example 1); assay type: in vivo, ICR strain mice; conditions: 50 mg/kg body weight orally once daily for 10 days, blood 4 hours after last administration
Excerpt: Adonixanthin was used as an asymmetric carotenoid, and astaxanthin was used as a symmetric carotenoid. As experimental animals, ICR strain mice were used. Fourteen (14) mice were used, and 4 mice each were assigned to the adonixanthin-administration group and the astaxanthin-administration group, and 6 mice were assigned to the control administration group. In grouping, each group was constituted so that the mean body weight in each group was as uniform as possible based on the body weight on the day before initiation of administration. For each experimental group, blood was collected before initiation of administration of dosing substances. […] Each of the concentration of adonixanthin in serum of blood collected from the adonixanthin-administration group (concentration relative to 1 mL of serum) and the concentration of astaxanthin in serum of blood collected from the astaxanthin-administration group (concentration relative to 1 mL of serum) was measured. […] In HPLC, the concentration of adonixanthin was measured as a concentration of each of the cis isomer and the trans isomer. In HPLC, the concentration of astaxanthin was measured as a concentration of each of the cis isomer and the trans isomer. […] From serum collected from the control administration group, neither adonixanthin nor astaxanthin were detected.

[2] = Transfer into each organ: carotenoid concentration in organs of cynomolgus monkeys (Test Example 3); assay type: in vivo; conditions: cynomolgus monkey
Protocol: As experimental animals, cynomolgus monkeys were used. Two cynomolgus monkeys were used, and an adonixanthin dosing solution was administered to one monkey (adonixanthin-administering monkey), while an astaxanthin dosing solution was administered to the other monkey (astaxanthin-administering monkey). As the dosing solutions, the dosing solutions obtained in Preparation Example 2 were used, and the dosing solutions at a dose such that the dose of adonixanthin or astaxanthin was 50 mg/kg body weight were administered once daily for 10 days (the day of initiation of administration of the dosing solutions was defined as day 1). As the administration method, a disposable catheter was inserted from the nasal cavity into the stomach, and the dosing solutions were injected into the stomach using a syringe. When the dosing solutions were collected into a syringe, the dosing solutions were collected while being stirred with a stirrer. The dose in each administration was calculated based on the latest body weight at each administration time point (the body weight was measured on the day of initiation of acclimation, the day of end of acclimation, the day of initiation of administration, and before administration on day 8 of administration using an electric balance (HP-40K or GP-40K, both of which are manufactured by A&D Company, Limited)). The administration time was 8:30 to 13:30.
During the administration period of the dosing solution, each cynomolgus monkey was fed about 108 g (about 12 g×9 pieces) of a pellet once daily at 14:00 to 16:00, and the feed remained by the feeding on the next day (for the day of administration, before administration) was recovered. Each cynomolgus monkey was fed tap water at libitum, and maintained on a 12-h light/dark cycle, at […], with a relative humidity of 50±20%.
After blood collection after the last administration of the dosing solutions, an aqueous solution of pentobarbital sodium (manufactured by Tokyo Chemical Industry Co., Ltd.) (64.8 mg/mL) was administered into the cephalic vein at a volume of 0.4 mL/kg body weight to perform anesthesia. After the body weight was measured, each cynomolgus monkey was euthanized by exsanguination, and the brain (cerebral cortex, cerebral medulla, cerebellum, midbrain, striatum putamen, striatum caudate nucleus, hippocampus, medulla oblongata, diencephalon), the heart, the spleen, the liver, the kidneys (right and left), and the retina were collected. Each organ thus collected was stored in a deep freezer (−70° C. or lower).
Each of the concentration of adonixanthin in each organ collected from the adonixanthin-administering monkey (concentration relative to the weight of each organ) and the concentration of astaxanthin in each organ collected from the astaxanthin-administering monkey (concentration relative to the weight of each organ) was measured. Specifically, each organ was homogenized, and extraction was repeated with acetone until no color occurred. Then, filtration through a filter was performed to evaporate acetone, and diethyl ether:hexane (2:8, v/v) was added to the solution to extract a carotenoid. Furthermore, evaporation to dryness was performed, and the residue was dissolved in acetone:hexane (2:8, v/v) and subjected to HPLC. As the HPLC device, a Hitachi L-6000 intelligent pump and an L-4250 UV-VIS detector were used. The measurement wavelength was 450 nm, and a column of 5 μm Cosmosil 5SL-II (inner diameter of 250×4.6 mm) (manufactured by Nacalai Tesque, Inc.) was used. As the mobile phase, acetone:hexane (2:8, v/v) was used, and measurement was performed at a flow rate of 1.0 mL/min.
Each of the concentration of adonixanthin in each organ collected from the adonixanthin-administering monkey and the concentration of astaxanthin in each organ collected from the astaxanthin-administering monkey is shown in Table 2.

concentration at 10 days ([2]; brain, cerebellum, oral, 50 mg/kg, 50 mg/kg intragastric once daily for 10 days, after last administration, read-out: Concentration in organ: Brain, Cerebellum): 57.5 ng/g
concentration at 10 days ([2]; brain, cerebral cortex, oral, 50 mg/kg, 50 mg/kg intragastric once daily for 10 days, after last administration, read-out: Concentration in organ: Brain, Cerebral cortex): 48.9 ng/g
concentration at 10 days ([2]; brain, cerebral medulla, oral, 50 mg/kg, 50 mg/kg intragastric once daily for 10 days, after last administration, read-out: Concentration in organ: Brain, Cerebral medulla): 53.2 ng/g
concentration at 10 days ([2]; brain, diencephalon, oral, 50 mg/kg, 50 mg/kg intragastric once daily for 10 days, after last administration, read-out: Concentration in organ: Brain, Diencephalon): 77.1 ng/g
concentration at 10 days ([2]; brain, hippocampus, oral, 50 mg/kg, 50 mg/kg intragastric once daily for 10 days, after last administration, read-out: Concentration in organ: Brain, Hippocampus): 64 ng/g
concentration at 10 days ([2]; brain, medulla oblongata, oral, 50 mg/kg, 50 mg/kg intragastric once daily for 10 days, after last administration, read-out: Concentration in organ: Brain, Medulla oblongata): 27.6 ng/g
concentration at 10 days ([2]; brain, midbrain, oral, 50 mg/kg, 50 mg/kg intragastric once daily for 10 days, after last administration, read-out: Concentration in organ: Brain, Midbrain): 7.4 ng/g
concentration at 10 days ([2]; brain, striatum caudate nucleus, oral, 50 mg/kg, 50 mg/kg intragastric once daily for 10 days, after last administration, read-out: Concentration in organ: Brain, Striatum Caudate nucleus): 59.8 ng/g
concentration at 10 days ([2]; brain, striatum putamen, oral, 50 mg/kg, 50 mg/kg intragastric once daily for 10 days, after last administration, read-out: Concentration in organ: Brain, Striatum Putamen): 42.1 ng/g
concentration at 10 days ([2]; heart, oral, 50 mg/kg, 50 mg/kg intragastric once daily for 10 days, after last administration, read-out: Concentration in organ: Heart): 305 ng/g
concentration at 10 days ([2]; kidney (left), oral, 50 mg/kg, 50 mg/kg intragastric once daily for 10 days, after last administration, read-out: Concentration in organ: Kidney (left)): 1600 ng/g
concentration at 10 days ([2]; kidney (right), oral, 50 mg/kg, 50 mg/kg intragastric once daily for 10 days, after last administration, read-out: Concentration in organ: Kidney (right)): 1530 ng/g
concentration at 10 days ([2]; liver, oral, 50 mg/kg, 50 mg/kg intragastric once daily for 10 days, after last administration, read-out: Concentration in organ: Liver): 1120 ng/g
concentration at 10 days ([2]; retina, oral, 50 mg/kg, 50 mg/kg intragastric once daily for 10 days, after last administration, read-out: Concentration in organ: Retina): 689 ng/g
concentration at 10 days ([2]; spleen, oral, 50 mg/kg, 50 mg/kg intragastric once daily for 10 days, after last administration, read-out: Concentration in organ: Spleen): 5280 ng/g
SMILES: CC1=C(/C=C/C(C)=C/C=C/C(C)=C/C=C/C=C(C)/C=C/C=C(C)/C=C/C2=C(C)C(=O)C(O)CC2(C)C)C(C)(C)CC(O)C1 (stereo not drawn) [adonixanthin, 3,3′-dihydroxy-β,β-caroten-4-one]
Concentration in serum (total of cis isomer and trans isomer), FIG. 1 [1]: especially likely to be retained in blood
Transfer into and retention in each organ (summary of Table 2) ([2]; 50 mg/kg intragastric once daily for 10 days): especially likely to be transferred into each organ and retained therein

Concentration in serum (total of cis isomer and trans isomer), FIG. 1 [1]: exist in serum at a high concentration
concentration at 10 days ([2]; in vivo, 50 mg/kg, Concentration in organ: Brain, Cerebellum): 14.4 ng/g
concentration at 10 days ([2]; in vivo, 50 mg/kg, Concentration in organ: Brain, Cerebral cortex): 4.8 ng/g
concentration at 10 days ([2]; in vivo, 50 mg/kg, Concentration in organ: Brain, Cerebral medulla): 8.3 ng/g
concentration at 10 days ([2]; in vivo, 50 mg/kg, Concentration in organ: Brain, Diencephalon): 5.2 ng/g
concentration at 10 days ([2]; in vivo, 50 mg/kg, Concentration in organ: Brain, Hippocampus): 7.1 ng/g
concentration at 10 days ([2]; in vivo, 50 mg/kg, Concentration in organ: Brain, Medulla oblongata): 8.3 ng/g
concentration at 10 days ([2]; in vivo, 50 mg/kg, Concentration in organ: Brain, Midbrain): 2.9 ng/g
concentration at 10 days ([2]; in vivo, 50 mg/kg, Concentration in organ: Brain, Striatum Caudate nucleus): 10.2 ng/g
concentration at 10 days ([2]; in vivo, 50 mg/kg, Concentration in organ: Brain, Striatum Putamen): 5 ng/g
concentration at 10 days ([2]; in vivo, 50 mg/kg, Concentration in organ: Heart): 15.7 ng/g
concentration at 10 days ([2]; in vivo, 50 mg/kg, Concentration in organ: Kidney (left)): 228 ng/g
concentration at 10 days ([2]; in vivo, 50 mg/kg, Concentration in organ: Kidney (right)): 231 ng/g
concentration at 10 days ([2]; in vivo, 50 mg/kg, Concentration in organ: Liver): 37.8 ng/g
concentration at 10 days ([2]; in vivo, 50 mg/kg, Concentration in organ: Retina): 24.4 ng/g
concentration at 10 days ([2]; in vivo, 50 mg/kg, Concentration in organ: Spleen): 88.8 ng/g
SMILES: CC1=C(/C=C/C(C)=C/C=C/C(C)=C/C=C/C=C(C)/C=C/C=C(C)/C=C/C2=C(C)C(=O)C(O)CC2(C)C)C(C)(C)CC(O)C1=O (stereo not drawn) [astaxanthin, 3,3′-dihydroxy-β,β-carotene-4,4′-dione]
Transfer into and retention in each organ (summary of Table 2) ([2]; in vivo, 50 mg/kg): exist in each organ at a high concentration
